What was measured:
Assay in all cases: selective drug sensitivity score (sDSS, relative to normal bone marrow) (sDSS (score)); higher = more potent and effective on the cell line relative to normal bone marrow cells
Settings in all cases: 72 h
KOPN-8 = system: KOPN-8
SUP-B15 = system: SUP-B15
COG-LL-319h = system: COG-LL-319h
697 = system: 697
KASUMI-2 = system: KASUMI-2
HPB-ALL = system: HPB-ALL
TANOUE = system: TANOUE
MOLT-16 = system: MOLT-16
380 = system: 380
NALM-16 = system: NALM-16
PF-382 = system: PF-382
P30-OHKUBO = system: P30-OHKUBO
REH = system: REH
NALM-6 = system: NALM-6
MOLT-4 = system: MOLT-4
P12-ICHIKAWA = system: P12-ICHIKAWA
COG-LL-332h = system: COG-LL-332h
DND-41 = system: DND-41
ALL-SIL = system: ALL-SIL
ALL-PO = system: ALL-PO
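Note: ALL cell lines in 384-well plates, five doses spanning 10,000-fold, each plate scaled between vehicle and 100 µmol/L benzalkonium chloride controls, sDSS an adapted area-under-curve metric.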

Row | Compound | selective drug sensitivity score (KOPN-8) | selective drug sensitivity score (SUP-B15) | selective drug sensitivity score (COG-LL-319h) | selective drug sensitivity score 697 | selective drug sensitivity score (KASUMI-2) | selective drug sensitivity score (HPB-ALL) | selective drug sensitivity score (TANOUE) | selective drug sensitivity score (MOLT-16) | selective drug sensitivity score 380 | selective drug sensitivity score (NALM-16) | selective drug sensitivity score (PF-382) | selective drug sensitivity score (P30-OHKUBO) | selective drug sensitivity score (REH) | selective drug sensitivity score (NALM-6) | selective drug sensitivity score (MOLT-4) | selective drug sensitivity score (P12-ICHIKAWA) | selective drug sensitivity score (COG-LL-332h) | selective drug sensitivity score (DND-41) | selective drug sensitivity score (ALL-SIL) | selective drug sensitivity score (ALL-PO)
1 | Nc1nc(F)nc2c1ncn2[C@@H]1O[C@H](CO)[C@@H](O)[C@@H]1O [Fludarabine] (top concentration 10000 nM) | 8.4 | 9.4 | 8.4 | 7.3 | 5.3 | 0.3 | -10.3 | 2.6 | 6.9 | -6 | -6.6 | 7.7 | -1.3 | 4.6 | -1.9 | -5.5 | 0.6 | 5.5 | 3 | 1.6
2 | COc1cc([C@@H]2c3cc4c(cc3[C@@H](O[C@@H]3O[C@@H]5CO[C@@H](c6cccs6)O[C@H]5[C@H](O)[C@H]3O)[C@H]3COC(=O)[C@H]23)OCO4)cc(OC)c1O [Teniposide] (top concentration 10000 nM) | 0 | 0 | 0 | 0 | 2.4 | 0 | 0 | 0 | 0 | 0 | 0 | 0 | 0 | 0 | 0 | 0 | 0 | 0 | 0 | 0
3 | CC(C)(C#N)c1cc(Cn2cncn2)cc(C(C)(C)C#N)c1 [Anastrozole] (top concentration 10000 nM) | 0 | 0 | 0 | 0 | 0 | 0.2 | 0 | 0 | 0 | 0 | 0 | 0 | 0 | 0 | 0 | 0 | 0 | 2.9 | 0 | 0
4 | O[C@H]1CC[C@H](Nc2ncc3nc(Nc4c(F)cc(F)cc4F)n([C@H]4CCOC4)c3n2)CC1 [Tanzisertib] (top concentration 10000 nM) | 1.4 | 0 | 0 | 0 | 0 | 0 | 0 | 0 | 0 | 1.2 | 0 | 0 | 0 | 0 | 0 | 0 | 0 | 0 | 0 | 1.9
5 | CS(=O)(=O)N1CCN(Cc2cc3nc(-c4cccc5[nH]ncc45)nc(N4CCOCC4)c3s2)CC1 [Pictilisib] (top concentration 10000 nM) | 14.8 | 0.16 | 5.56 | 7.36 | 8.46 | -0.04 | -5.84 | 4.16 | 16.4 | 4.66 | 6.26 | 13 | 10.5 | 12.9 | 9.36 | 1.16 | 0.46 | -1.44 | 4.56 | 14.6
6 | Nc1nc(OCc2cc(Br)cs2)c2[nH]cnc2n1 [Lomeguatrib] (top concentration 10000 nM) | 0 | 0 | 0 | 0.4 | 0 | 0.1 | 0 | 0 | 0 | 0 | 0 | 0 | 1.2 | 0 | 0 | 0 | 0 | 0 | 0 | 0.5
7 | CNC(=O)CN1CCC(Oc2cc3c(Nc4cccc(Cl)c4F)ncnc3cc2OC)CC1 [Sapitinib] (top concentration 1000 nM) | 0 | 0 | 0 | 0 | 0 | 0 | 0 | 0 | 0 | 0 | 0 | 0 | 0 | 0 | 0 | 0 | 0 | 0 | 0 | 0
8 | CCc1c2c(nc3ccc(O)cc13)-c1cc3c(c(=O)n1C2)COC(=O)[C@]3(O)CC [SN-38] (top concentration 10000 nM) | 28 | 26.9 | 26.7 | 22.7 | 18.8 | 11.2 | -5.52 | 28.2 | 27 | 13.4 | 24.8 | 24.6 | 27.2 | 22.1 | 28.2 | 26.5 | 27.6 | 25.5 | 27.3 | 19.5
9 | Nc1ccn([C@@H]2O[C@H](CO)[C@@H](O)[C@@H]2O)c(=O)n1 [Cytarabine] (top concentration 10000 nM) | 20.9 | 27.7 | 18.8 | 27.7 | 16.6 | 2.7 | -8.9 | 22.5 | 22.2 | 8.8 | 19.1 | 26.2 | 21.8 | 25.2 | 19 | 24.5 | 25.5 | 16.3 | 15.1 | 8.6
10 | Cc1cc(OCc2nnc(SC3CCCC3)n2-c2cccnc2)ccc1-c1ccc(S(C)(=O)=O)cc1 [NMS-873] (top concentration 10000 nM) | 4.06 | 10.6 | 10.3 | 14.1 | 4.26 | 6.26 | 19.4 | 17.6 | -4.24 | 2.86 | 11.8 | 4.66 | 12 | 7.36 | 17.4 | 19.9 | 5.86 | 4.46 | 8.96 | 4.36
11 | CCOC(=O)C1=CCCC[C@H]1S(=O)(=O)Nc1ccc(F)cc1Cl [Resatorvid] (top concentration 10000 nM) | 0.2 | 0 | 0 | 0 | 0 | 0 | 0 | 0 | 0 | 0 | 0 | 0 | 0 | 0 | 0 | 0 | 0 | 0 | 0 | 0
12 | O=C(c1cc(Cc2n[nH]c(=O)c3ccccc23)ccc1F)N1CCN(C(=O)C2CC2)CC1 [Olaparib] (top concentration 10000 nM) | 9.68 | 13.1 | 11.7 | 6.78 | 4.78 | -1.32 | -3.42 | 9.08 | 26.8 | -3.42 | -0.52 | 2.98 | 1.48 | 1.48 | 4.18 | -0.82 | 4.98 | 1.28 | -0.02 | -0.12
13 | CCn1c(-c2nonc2N)nc2cnc(Oc3cccc(NC(=O)c4ccc(OCCN5CCOCC5)cc4)c3)cc21 (top concentration 10000 nM) | 11.3 | 19.3 | 17.5 | 18.3 | 14.3 | -1.14 | -5.44 | 12.1 | 7.46 | -5.44 | 1.66 | 10.9 | 4.56 | 6.76 | 1.86 | 17.1 | 11 | 0.86 | 4.06 | -2.14
14 | CCN(CC)C(=S)SSC(=S)N(CC)CC [Disulfiram(+CuCl2)] (top concentration 50000 nM) | 15.8 | 10.7 | 18.7 | -1.02 | 5.18 | 15.8 | -1.62 | 13.9 | 1.58 | -2.12 | -0.02 | 0.78 | -0.32 | -2.12 | -2.12 | -2.12 | -0.52 | -2.12 | -2.12 | -2.12
15 | Oc1nc(-c2ccc(C(F)(F)F)cc2)nc2c1CSCC2 [XAV939] (top concentration 10000 nM) | 0.66 | -0.14 | -0.14 | -0.14 | 1.46 | -0.14 | -0.14 | -0.14 | 1.96 | -0.14 | -0.14 | -0.14 | -0.04 | -0.14 | -0.14 | -0.14 | -0.14 | -0.14 | -0.14 | 0.06
16 | CO[C@H]1C[C@@H]2CC[C@@H](C)[C@@](O)(O2)C(=O)C(=O)N2CCCC[C@H]2C(=O)O[C@H]([C@H](C)C[C@@H]2CC[C@@H](OC(=O)C(C)(CO)CO)[C@H](OC)C2)CC(=O)[C@H](C)/C=C(\C)[C@@H](O)[C@@H](OC)C(=O)[C@H](C)C[C@H](C)/C=C/C=C/C=C/1C [Temsirolimus] (top concentration 100 nM) | 21.9 | 9.86 | 4.66 | 14.9 | 6.46 | -4.44 | -5.04 | 11.7 | 25.5 | 0.16 | 7.46 | 6.36 | 3.96 | -2.34 | -1.24 | -1.44 | 8.46 | 3.66 | 2.76 | 2.56
17 | COC(=O)c1ccc2c(c1)NC(=O)/C2=C(\Nc1ccc(N(C)C(=O)CN2CCN(C)CC2)cc1)c1ccccc1 [Nintedanib] (top concentration 10000 nM) | -5.26 | 9.44 | 8.74 | 0.84 | -6.36 | 0.64 | -6.36 | -2.26 | -4.56 | -1.76 | 5.04 | -1.46 | -5.16 | -2.36 | -1.96 | -2.96 | 4.44 | -3.16 | 14.3 | 11.1
18 | COc1cccc2c1C(=O)c1c(O)c3c(c(O)c1C2=O)C[C@@](O)(C(C)=O)C[C@@H]3O[C@H]1C[C@H](N)[C@H](O)[C@H](C)O1 [Daunorubicin] (top concentration 1000 nM) | 6.56 | 11.9 | 16.4 | 9.06 | 10.8 | -1.64 | -9.54 | 13.5 | 13.7 | -2.14 | 1.26 | 6.46 | 6.16 | 6.36 | 7.86 | 6.96 | 12.1 | -0.54 | 1.26 | -0.34
